# Laboratory results reported in patent publication US7704990B2, “Agents for preventing and treating disorders involving modulation of the RyR receptors” (The Trustees of Columbia University in the City of New York, priority 2005, dated 2010).
# Experiments:
# [1] = biological target: PKA phosphorylated RyR1 / calstabin1 (Homo sapiens, UniProt P21817); experiment: Calstabin1 binding to immunoprecipitated PKA phosphorylated skeletal RyR1 at increasing JTV519 concentrations
# Source text: Sediment represents only calstabin bound to RyR.
# RyR1 [2] = biological target: T1, RyR1 (Mus musculus, UniProt E9PZQ0); experiment: Single-channel recordings of RyR1 from soleus muscle of mdx mice; format: biochemical; conditions: 1.0 μM JTV-519, cytoplasmic Ca2+ 150 nM, vs untreated wild-type
# T1 construct: single channel current trace of RyR1 from soleus muscle of control (wild-type) mouse; from tissue; host or cells: skeletal (soleus) muscle of mdx mice or of wild-type mice with heart failure
# Source text: Embodiments A and B are, respectively, a single channel current trace and an amplitude histogram of RyR1 from soleus muscle of a control (wild-type) mouse under resting conditions. Embodiments C and D are, respectively, a single channel current trace and an amplitude histogram of RyR1 from soleus muscle of an mdx mouse.
# In FIG. 11, channel openings are represented as upward deflections; ‘c’ indicates the closed state; and 4 pA current open amplitude is indicated by dash. Upper traces represent 5 secs and lower traces 500 ms; dotted lines indicate subconductance states.
# Increased Po in mdx mice is consistent with intracellular Ca^2+ leak. The amplitude histograms in embodiments B, D, and F show multiple subconductance states consistent with calstabin1 (FKBP12) depletion in RyR1 from mdx soleus muscle.
# RyR1 [3] = biological target: T1, RyR1; experiment: RyR1 single-channel tracings from skeletal muscle of heart failure mice treated in vivo; conditions: mice with heart failure and increased muscle fatigue, 150 nM cytoplasmic Ca2+
# Source text: Embodiments A and C are single channel current traces of wild-type mice with heart failure treated with placebo (A) and JTV-519 (C). Embodiments B and D are amplitude histograms for wild-type mice with heart failure treated with placebo (B) and JTV-519 (D).
# For the amplitude histograms in embodiment B and D, amplitude is represented on the x axis, and events indicates the number of channel openings. Po, To and Tc values correspond to the representative traces. Treatment as indicated on top of traces.
# RyR1 / calstabin1 = biological target: T2, RyR1 / calstabin1 (Mus musculus, UniProt E9PZQ0); experiment: RyR1 PKA phosphorylation and calstabin1 bound to RyR1 in soleus muscle of heart failure mice; format: in vivo
# T2 construct: increase of calstabin1 in the RyR1 complex in soleus muscles in vivo; from tissue; host or cells: soleus muscle of wild-type and calstabin2-/- mice with post-infarction heart failure
# Description: Embodiment A are bar graphs of PKA phosphorylation of RyR1 at Ser-2844 in mice, which corresponds to Ser-2843 in humans.
# Equivalent amounts of RyR1 were immunoprecipitated with an antibody against RyR1. Embodiment A are bar graphs show the amount of PKA phosphorylation of RyR1 at Ser-2844 in mice (corresponding to human Ser-2843). […] Embodiment B are bar graphs showing the amount of calstabin1 bound to RyR1 from wild-type or calstabin2^−/− mice treated with JTV519 or placebo. Mice were treated with JTV519 by implantable osmotic minipumps using a dose of 0.5 mg/kg/day.
# soleus muscle = experiment: Soleus muscle fatigue time in mice with heart failure from myocardial infarction; format: in vivo, mouse
# Source text: Soleus muscles from JTV519-treated wild-type mice or calstabin2^−/− mice with heart failure from myocardial infarction are more resistant to fatigue (P<0.05) compared to placebo-treated mice. After completion of treatment, soleus muscle was dissected and mounted in a tissue bath to assess isolated skeletal muscle function. Representative 50% of maximal tetanic force fatigue time tracings are shown for wild-type and calstabin2^−/− mice, treated with JTV519 or placebo, in embodiment A. In embodiment B are shown bar graph summarizing mean time to fatigue.
# Sequence of PKA phosphorylated RyR1 / calstabin1 (P21817 whole entry): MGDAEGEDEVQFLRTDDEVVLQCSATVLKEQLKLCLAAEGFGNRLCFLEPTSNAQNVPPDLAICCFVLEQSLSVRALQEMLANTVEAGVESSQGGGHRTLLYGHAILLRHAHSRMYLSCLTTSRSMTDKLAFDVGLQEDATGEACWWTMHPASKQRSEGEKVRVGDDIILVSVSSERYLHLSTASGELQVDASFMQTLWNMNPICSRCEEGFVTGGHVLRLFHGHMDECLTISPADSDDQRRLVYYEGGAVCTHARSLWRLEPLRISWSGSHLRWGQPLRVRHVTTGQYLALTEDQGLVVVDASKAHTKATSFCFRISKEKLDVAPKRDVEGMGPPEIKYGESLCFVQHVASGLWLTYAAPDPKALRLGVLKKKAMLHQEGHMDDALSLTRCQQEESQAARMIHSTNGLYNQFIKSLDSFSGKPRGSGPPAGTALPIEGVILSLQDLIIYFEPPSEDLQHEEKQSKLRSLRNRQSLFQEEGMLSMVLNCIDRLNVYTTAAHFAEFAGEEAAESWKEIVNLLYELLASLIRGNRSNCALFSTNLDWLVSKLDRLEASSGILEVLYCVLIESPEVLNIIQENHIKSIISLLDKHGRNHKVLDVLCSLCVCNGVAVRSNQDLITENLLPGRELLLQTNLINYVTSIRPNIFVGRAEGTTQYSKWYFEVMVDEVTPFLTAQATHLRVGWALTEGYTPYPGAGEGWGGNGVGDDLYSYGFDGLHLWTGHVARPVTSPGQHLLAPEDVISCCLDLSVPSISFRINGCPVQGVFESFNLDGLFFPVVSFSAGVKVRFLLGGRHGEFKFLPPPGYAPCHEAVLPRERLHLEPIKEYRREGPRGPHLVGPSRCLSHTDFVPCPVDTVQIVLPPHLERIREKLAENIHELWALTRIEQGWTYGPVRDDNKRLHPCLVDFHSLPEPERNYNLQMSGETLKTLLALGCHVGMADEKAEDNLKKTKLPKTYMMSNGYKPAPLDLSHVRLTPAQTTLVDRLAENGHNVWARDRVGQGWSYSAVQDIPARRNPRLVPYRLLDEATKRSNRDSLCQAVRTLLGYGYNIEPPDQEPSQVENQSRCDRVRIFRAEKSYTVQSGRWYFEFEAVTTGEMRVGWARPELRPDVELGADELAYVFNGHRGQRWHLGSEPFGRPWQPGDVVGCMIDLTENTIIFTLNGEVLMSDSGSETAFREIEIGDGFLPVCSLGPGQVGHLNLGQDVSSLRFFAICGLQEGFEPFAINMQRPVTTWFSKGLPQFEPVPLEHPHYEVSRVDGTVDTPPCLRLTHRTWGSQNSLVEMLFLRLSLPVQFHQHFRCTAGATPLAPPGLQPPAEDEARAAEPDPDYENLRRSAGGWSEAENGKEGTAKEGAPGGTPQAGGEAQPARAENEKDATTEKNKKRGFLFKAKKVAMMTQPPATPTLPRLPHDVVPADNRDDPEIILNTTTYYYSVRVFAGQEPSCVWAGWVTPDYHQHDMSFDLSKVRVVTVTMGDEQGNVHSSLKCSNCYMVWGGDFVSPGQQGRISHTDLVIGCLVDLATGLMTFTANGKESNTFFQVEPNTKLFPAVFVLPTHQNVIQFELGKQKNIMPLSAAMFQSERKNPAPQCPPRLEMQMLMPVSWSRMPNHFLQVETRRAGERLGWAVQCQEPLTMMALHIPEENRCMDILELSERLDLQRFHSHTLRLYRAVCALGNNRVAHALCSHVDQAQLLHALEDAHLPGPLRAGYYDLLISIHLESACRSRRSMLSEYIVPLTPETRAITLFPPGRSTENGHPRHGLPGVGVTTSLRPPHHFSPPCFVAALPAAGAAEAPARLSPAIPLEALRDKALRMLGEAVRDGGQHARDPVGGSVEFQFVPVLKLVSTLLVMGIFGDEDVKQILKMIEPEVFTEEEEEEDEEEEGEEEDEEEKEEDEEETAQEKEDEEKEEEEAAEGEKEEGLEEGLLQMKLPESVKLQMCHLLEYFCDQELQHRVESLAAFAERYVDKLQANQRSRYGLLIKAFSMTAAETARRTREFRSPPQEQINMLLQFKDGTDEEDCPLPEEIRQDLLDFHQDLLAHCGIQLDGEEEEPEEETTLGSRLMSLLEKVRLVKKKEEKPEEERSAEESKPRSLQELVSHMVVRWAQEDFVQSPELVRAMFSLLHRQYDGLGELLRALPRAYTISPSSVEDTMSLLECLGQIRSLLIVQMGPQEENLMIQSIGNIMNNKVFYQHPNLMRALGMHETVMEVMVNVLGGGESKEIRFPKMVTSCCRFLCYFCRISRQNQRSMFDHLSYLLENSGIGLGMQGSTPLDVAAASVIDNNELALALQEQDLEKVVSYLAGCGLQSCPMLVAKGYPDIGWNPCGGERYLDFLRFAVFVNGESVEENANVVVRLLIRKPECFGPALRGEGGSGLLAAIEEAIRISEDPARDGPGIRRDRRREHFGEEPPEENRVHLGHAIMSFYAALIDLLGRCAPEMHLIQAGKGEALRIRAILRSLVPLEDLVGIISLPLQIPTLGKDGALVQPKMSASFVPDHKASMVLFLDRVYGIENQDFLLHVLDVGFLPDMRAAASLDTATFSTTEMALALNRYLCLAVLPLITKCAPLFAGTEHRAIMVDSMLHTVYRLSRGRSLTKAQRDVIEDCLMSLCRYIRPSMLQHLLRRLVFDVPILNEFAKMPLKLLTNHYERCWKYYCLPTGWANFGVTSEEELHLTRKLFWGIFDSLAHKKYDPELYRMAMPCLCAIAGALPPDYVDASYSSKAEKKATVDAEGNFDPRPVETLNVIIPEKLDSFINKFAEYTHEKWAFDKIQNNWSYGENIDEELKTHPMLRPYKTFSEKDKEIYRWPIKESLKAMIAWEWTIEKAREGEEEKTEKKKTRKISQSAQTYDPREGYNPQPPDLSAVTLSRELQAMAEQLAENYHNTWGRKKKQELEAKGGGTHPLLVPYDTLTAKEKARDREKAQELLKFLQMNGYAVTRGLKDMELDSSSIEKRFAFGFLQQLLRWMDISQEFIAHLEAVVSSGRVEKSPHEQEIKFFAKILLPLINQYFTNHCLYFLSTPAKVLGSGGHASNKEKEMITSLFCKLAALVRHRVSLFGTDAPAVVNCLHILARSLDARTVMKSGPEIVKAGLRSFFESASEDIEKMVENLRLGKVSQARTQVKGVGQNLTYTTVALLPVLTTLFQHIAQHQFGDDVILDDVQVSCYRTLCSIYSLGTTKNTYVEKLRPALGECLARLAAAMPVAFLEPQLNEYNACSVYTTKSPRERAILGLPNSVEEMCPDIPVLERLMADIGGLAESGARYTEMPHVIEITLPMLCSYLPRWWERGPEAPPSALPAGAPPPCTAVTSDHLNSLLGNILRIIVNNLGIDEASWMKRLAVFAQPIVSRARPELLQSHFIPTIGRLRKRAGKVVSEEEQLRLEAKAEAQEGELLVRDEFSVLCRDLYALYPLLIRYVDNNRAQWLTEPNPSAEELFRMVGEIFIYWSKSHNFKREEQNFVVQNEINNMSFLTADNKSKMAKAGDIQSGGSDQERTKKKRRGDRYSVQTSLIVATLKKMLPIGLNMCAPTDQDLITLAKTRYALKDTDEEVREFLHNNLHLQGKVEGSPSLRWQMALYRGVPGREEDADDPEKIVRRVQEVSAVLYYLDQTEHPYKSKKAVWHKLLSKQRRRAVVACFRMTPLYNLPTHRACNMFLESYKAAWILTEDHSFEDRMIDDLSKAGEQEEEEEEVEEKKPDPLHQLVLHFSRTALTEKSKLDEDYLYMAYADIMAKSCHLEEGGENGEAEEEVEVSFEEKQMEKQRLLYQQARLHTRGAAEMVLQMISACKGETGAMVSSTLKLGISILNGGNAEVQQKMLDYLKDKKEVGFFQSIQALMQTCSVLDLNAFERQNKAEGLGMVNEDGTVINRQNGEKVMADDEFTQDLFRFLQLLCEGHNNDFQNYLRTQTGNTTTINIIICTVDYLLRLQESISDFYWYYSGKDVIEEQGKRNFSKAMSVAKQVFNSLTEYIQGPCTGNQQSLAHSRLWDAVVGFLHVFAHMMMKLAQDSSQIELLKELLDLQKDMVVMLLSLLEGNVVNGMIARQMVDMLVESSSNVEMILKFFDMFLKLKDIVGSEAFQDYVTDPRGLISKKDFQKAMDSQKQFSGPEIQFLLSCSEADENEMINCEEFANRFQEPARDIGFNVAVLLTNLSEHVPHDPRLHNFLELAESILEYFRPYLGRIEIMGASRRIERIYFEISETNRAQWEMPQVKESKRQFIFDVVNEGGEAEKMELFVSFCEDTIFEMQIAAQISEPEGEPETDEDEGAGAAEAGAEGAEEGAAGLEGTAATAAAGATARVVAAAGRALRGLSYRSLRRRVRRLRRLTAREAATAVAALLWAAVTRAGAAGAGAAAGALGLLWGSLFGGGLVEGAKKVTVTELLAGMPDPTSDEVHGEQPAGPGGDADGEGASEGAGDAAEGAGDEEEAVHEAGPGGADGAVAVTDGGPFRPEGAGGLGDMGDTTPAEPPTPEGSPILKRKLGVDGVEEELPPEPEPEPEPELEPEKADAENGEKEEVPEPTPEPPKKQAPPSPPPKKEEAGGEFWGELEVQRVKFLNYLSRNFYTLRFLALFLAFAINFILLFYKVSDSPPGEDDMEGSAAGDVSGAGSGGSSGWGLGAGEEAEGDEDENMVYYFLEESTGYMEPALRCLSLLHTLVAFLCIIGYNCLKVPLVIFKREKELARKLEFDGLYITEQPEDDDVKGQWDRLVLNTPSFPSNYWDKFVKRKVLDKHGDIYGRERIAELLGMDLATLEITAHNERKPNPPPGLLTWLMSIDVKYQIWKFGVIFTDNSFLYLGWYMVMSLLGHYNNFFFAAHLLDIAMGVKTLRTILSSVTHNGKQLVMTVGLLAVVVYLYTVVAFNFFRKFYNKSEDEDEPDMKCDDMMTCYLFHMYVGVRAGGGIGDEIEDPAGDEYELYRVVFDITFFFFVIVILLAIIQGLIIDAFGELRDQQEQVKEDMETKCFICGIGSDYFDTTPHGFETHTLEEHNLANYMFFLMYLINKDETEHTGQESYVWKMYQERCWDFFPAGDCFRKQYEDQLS
# Sequence of PKA phosphorylated RyR1 / calstabin1 (P62942 2-108 partner limits assumed): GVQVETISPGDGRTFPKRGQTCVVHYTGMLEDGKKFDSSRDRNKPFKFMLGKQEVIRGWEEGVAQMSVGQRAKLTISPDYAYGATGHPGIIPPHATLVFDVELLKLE
smiles,measurement,setting,value
"COc1ccc2c(c1)CN(C(=O)CCN1CCC(Cc3ccccc3)CC1)CCS2.Cl [JTV-519, 4-[3-(4-benzylpiperidin-1-yl)propionyl]-7-methoxy-2,3,4,5-tetrahydro-1,4-benzothiazepine monohydrochloride]",binding affinity of calstabin1 for PKA phosphorylated RyR1,[1]; relative to non-PKA phosphorylated RyR1,restored
same,concentration that increased the binding affinity of calstabin for RyR,"[1]; skeletal RyR1 with calstabin1, immunoblotting",≥ 50 nM
same,RyR1 channel activity,RyR1 [2],normal activity
same,RyR1 channel gating in skeletal muscle,RyR1 [3],normalized
same,resting heart rate or other ECG parameters,"FKBP12.6+/- mice; 0.5 mg/kg per hour for 7 days, implanted osmotic mini-pump",no effect
same,plasma levels that prevent cardiac arrhythmias and sudden cardiac death,"FKBP12.6+/- mice; FKBP12.6+/- mice, exercise testing and 0.5 mg/kg epinephrine",1 µM
same,exercise-induced ventricular arrhythmias,FKBP12.6+/- mice; haploinsufficient calstabin (FKBP12.6)+/- mice,prevention
same,calstabin1 in the RyR1 complex in soleus muscle,"RyR1 / calstabin1; wild-type and calstabin2-/- mice, implantable osmotic minipumps, 0.5 mg/kg/day",highly significant increase
same,RyR1 PKA phosphorylation at Ser-2844,RyR1 / calstabin1; wild-type animals,significant decrease
same,soleus muscle fatigue times,soleus muscle; calstabin2-/- knockout mice with heart failure,significantly improved
same,soleus muscle fatigue times,"soleus muscle; wild-type mice with heart failure, vs placebo",improved soleus muscle fatigue times
